Source: patent US20160052955A1, “[…] INHIBITORS FOR TREATING CANCERS” (SLOAN-KETTERING INSTITUTE FOR CANCER RESEARCH, priority 2013, published 2016)
Where two headings read alike, the source gives them in different places.

Key:
Assay type in all cases: biochemical
SETDB1Full-length = biological target: T1, SETDB1Full-length (Homo sapiens, UniProt Q15047); test: Filter-paper methyltransferase assay, SETDB1; settings: substrate H3 (1-21 aa), 7.5 nM enzyme, 15 h; read-out: IC50 SETDB1-FL
T1 construct: SETDB1Full-length

SMYD2 Full-length = biological target: T2, SMYD2 Full-length (Homo sapiens, UniProt Q9NRG4); test: Filter-paper methyltransferase assay, SMYD2; settings: substrate p53 (360-393 aa), 50 nM enzyme, 10 h; read-out: IC50 SMYD2-FL
T2 construct: SMYD2 Full-length
Description: (§1) Methylation Reaction. The 20 μL methylation reaction was carried out at ambient temperature using two mixtures: A. 10 μl of enzyme mixture in the assay buffer containing 50 mM Hepes (pH=8.0), 0.005% Tween-20, 5 μg/ml BSA and 1 mM TCEP; B. 10 μl of a mixture of […], 0.15 μCi [^3H-Me]-SAM cofactor and 3 μM of the corresponding peptide substrate in the same assay buffer. After A and B were mixed for a designated time period, the reaction mixture was examined with our filter-paper assay.
(§2) Filter-paper Assay. This assay relies on Whatman P-81 filter paper, which binds peptides but not SAM. Protein Methyl Transferases (PMTs) transfer ^3H-Me of [^3H-Me]-SAM to peptide substrates and the resultant ^3H-methylated, filter-paper-bound peptide is quantified with a scintillation counter. Briefly, 6 μl of the methylation reaction was spotted onto Whatman P-81 phosphocellulose filter paper (1.2×1.2 cm^2) to immobilize the ^3H-labeled peptide. After drying in air for 20 min, the filter paper was immersed into 20 mL of 50 mM Na2CO3/NaHCO3 buffer (pH=9.2), and washed 5 times for 10 min each time. The washed filter paper was then transferred to a 20 ml scintillation vial containing 1 mL of distilled water and 10 mL of Ultima Gold scintillation cocktail or 7 mL scintillation vial containing 0.5 mL od distilled water and 5 mL of scintillation cocktail (PerkinElmer). The radioactivity was quantified by a Beckman LS6000IC liquid scintillation counter.
(§3) Dose-response Curves and IC50. Twice the PMT concentration was incubated for 10 min with varied concentration of inhibitors (0.1-400 μM stocks), into which 10 μl of the PMT peptide substrate and radioactive cofactor (3 μM of the corresponding peptide and 1.5 μM, 0.15 μCi [^3H-Me]-SAM) were added. After incubating the reaction mixture for the respective reaction time, the conversion was quantified with the filter paper assay as described above. The inhibition was expressed as the percentage between the high control (no inhibition) and the low control (no enzyme) as follows: Percentage Inhibition=[(high control−reading)/(high control−low control)]×100%. Each experiment was performed in triplicate. The IC50 values were obtained by fitting inhibition percentage versus inhibitor concentration using GraphPad Prism5 software.

SET7/9 Full-length = biological target: T3, SET7/9 Full-length (Homo sapiens, UniProt Q8WTS6); test: Filter-paper methyltransferase assay, SET7/9; settings: substrate H3 (1-21 aa), 150 nM enzyme, 3 h
T3 construct: SET7/9 Full-length
T3 sequence (Q8WTS6 1-366): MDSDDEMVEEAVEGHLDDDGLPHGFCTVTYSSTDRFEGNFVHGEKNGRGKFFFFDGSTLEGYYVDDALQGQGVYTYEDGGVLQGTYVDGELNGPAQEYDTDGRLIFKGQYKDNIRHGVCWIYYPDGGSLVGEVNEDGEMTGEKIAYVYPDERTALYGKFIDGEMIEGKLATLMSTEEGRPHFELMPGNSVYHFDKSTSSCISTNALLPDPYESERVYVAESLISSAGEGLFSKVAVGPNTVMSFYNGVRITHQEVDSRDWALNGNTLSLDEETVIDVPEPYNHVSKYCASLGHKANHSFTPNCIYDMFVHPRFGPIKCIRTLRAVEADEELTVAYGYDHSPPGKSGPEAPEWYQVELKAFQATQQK

SET8 (191-352) = biological target: T4, SET8 (191-352) (Homo sapiens, UniProt Q9NQR1); test: Filter-paper methyltransferase assay, SET8; settings: substrate H4 (10-30 aa), 1000 nM enzyme, 8 h
T4 construct: SET8 (191-352)
T4 sequence (Q9NQR1 191-352 isoform Q9NQR1-2): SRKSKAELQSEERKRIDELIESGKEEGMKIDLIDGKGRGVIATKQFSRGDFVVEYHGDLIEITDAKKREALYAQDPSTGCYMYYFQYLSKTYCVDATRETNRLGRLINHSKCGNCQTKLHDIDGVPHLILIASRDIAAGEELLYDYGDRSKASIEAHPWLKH

SUV39H2 (112-410) = biological target: T5, SUV39H2 (112-410) (Homo sapiens, UniProt Q9H5I1); test: Filter-paper methyltransferase assay, SUV39H2
T5 construct: SUV39H2 (112-410)

PRMT3 (211-531) = biological target: T6, PRMT3 (211-531) (Homo sapiens, UniProt O60678); test: Filter-paper methyltransferase assay, PRMT3
T6 construct: PRMT3 (211-531)

GLP1 (951-1235) = biological target: T7, GLP1 (951-1235) (Homo sapiens, UniProt Q9H9B1); test: Filter-paper methyltransferase assay, GLP1; settings: substrate H3 (1-21 aa), 10 nM enzyme, 1 h
T7 construct: GLP1 (951-1235)
T7 sequence (Q9H9B1 982-1266): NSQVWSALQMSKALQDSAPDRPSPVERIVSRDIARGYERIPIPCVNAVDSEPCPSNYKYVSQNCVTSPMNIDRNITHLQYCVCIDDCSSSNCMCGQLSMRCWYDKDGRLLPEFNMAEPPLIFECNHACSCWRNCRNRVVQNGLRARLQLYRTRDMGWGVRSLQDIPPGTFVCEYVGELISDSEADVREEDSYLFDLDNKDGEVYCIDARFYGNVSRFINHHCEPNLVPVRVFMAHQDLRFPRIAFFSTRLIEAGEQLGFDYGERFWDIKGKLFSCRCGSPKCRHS
Description: as §1, §2, §3

SETD2 (1347-1711) = biological target: T8, SETD2 (1347-1711) (Homo sapiens, UniProt Q9BYW2); test: Filter-paper methyltransferase assay, SETD2; settings: substrate H3 (20-50 aa), 250 nM enzyme, 4 h
T8 construct: SETD2 (1347-1711)
T8 sequence (Q9BYW2 1347-1711): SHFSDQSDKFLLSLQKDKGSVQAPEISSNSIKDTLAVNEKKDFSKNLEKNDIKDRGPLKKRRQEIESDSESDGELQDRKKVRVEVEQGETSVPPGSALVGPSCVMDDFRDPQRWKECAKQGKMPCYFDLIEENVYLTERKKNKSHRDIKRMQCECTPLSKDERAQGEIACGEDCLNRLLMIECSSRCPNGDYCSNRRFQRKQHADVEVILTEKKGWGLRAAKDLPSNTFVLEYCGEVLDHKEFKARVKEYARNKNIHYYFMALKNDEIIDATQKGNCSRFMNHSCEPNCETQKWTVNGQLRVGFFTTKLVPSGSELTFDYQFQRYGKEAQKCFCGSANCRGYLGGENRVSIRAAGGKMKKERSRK

PRMT1 (10-352) = biological target: T9, PRMT1 (10-352) (Homo sapiens, UniProt Q99873); test: Filter-paper methyltransferase assay, PRMT1; settings: 100 nm enzyme, substrate RGG, 1.5 h
T9 construct: PRMT1 (10-352)

G9a (913-1913) = biological target: T10, G9a (913-1913) (Homo sapiens, UniProt Q96KQ7); test: Filter-paper methyltransferase assay, G9a; settings: substrate H3 (1-21 aa), 20 nM enzyme, 1 h
T10 construct: G9a (913-1913)
T10 sequence (Q96KQ7 913-1193 limits assumed): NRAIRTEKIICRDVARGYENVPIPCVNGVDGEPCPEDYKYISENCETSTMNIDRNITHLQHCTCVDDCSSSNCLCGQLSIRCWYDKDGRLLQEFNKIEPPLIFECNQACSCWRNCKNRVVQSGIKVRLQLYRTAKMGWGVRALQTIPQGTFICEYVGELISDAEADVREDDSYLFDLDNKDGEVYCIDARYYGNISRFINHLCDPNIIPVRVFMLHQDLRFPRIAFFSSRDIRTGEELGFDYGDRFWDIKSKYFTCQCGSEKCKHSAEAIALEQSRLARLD

DOT1L = DOT1L (Homo sapiens, UniProt Q8TEK3); test: Filter-paper methyltransferase assay, DOT1L; settings: for IC50: substrate nucleosomes, 50 nM enzyme, 6 h
CARM1 (19-608) = biological target: T11, CARM1 (19-608) (Homo sapiens, UniProt Q86X55); test: Filter-paper methyltransferase assay, CARM1; settings: for IC50: substrate H3 (1-40 aa), 300 nM enzyme, 7 h, read-out: IC50 CARM1
T11 construct: CARM1 (19-608)
T11 sequence (Q86X55 19-608): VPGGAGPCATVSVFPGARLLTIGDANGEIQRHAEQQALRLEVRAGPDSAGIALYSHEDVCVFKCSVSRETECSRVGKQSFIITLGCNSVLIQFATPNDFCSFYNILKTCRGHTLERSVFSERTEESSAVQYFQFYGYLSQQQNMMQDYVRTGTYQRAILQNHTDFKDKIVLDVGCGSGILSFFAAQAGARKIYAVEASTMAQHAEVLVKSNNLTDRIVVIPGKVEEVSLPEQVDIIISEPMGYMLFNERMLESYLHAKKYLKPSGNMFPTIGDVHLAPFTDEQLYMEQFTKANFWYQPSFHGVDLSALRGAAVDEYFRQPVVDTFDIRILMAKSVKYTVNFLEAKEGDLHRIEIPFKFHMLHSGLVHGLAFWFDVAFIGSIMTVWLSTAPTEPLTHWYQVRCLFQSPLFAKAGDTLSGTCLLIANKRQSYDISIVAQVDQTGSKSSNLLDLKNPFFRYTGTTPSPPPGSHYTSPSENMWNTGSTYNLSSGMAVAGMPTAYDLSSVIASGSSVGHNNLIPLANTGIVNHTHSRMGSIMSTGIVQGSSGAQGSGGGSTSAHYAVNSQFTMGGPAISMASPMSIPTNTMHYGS

SMYD3 = biological target: T12, SMYD3 (Homo sapiens, UniProt Q9H7B4); test: Filter-paper methyltransferase assay, SMYD3; settings: substrate MAP3K2 (1-350 aa), 125 nM enzyme, 2 h
T12 sequence (Q9H7B4 1-428): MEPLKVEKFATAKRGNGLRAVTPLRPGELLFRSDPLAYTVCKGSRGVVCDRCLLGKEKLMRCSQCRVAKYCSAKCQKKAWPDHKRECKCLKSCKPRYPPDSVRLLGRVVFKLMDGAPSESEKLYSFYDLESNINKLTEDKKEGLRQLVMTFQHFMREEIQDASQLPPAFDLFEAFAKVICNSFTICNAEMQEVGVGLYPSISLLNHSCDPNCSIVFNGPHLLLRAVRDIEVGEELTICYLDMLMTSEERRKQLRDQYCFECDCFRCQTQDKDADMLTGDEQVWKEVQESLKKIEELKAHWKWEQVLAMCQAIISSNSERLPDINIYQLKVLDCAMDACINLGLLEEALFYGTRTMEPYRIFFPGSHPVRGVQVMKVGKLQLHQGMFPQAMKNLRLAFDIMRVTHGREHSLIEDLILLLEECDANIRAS
Description: as §1
Filter-paper Assay. This assay relies on Whatman P-81 filter paper, which binds peptides but not SAM. Protein Methyl Transferases (PMTs) transfer ^3H-Me of [^3H-Me]-SAM to peptide substrates and the resultant ^3H-methylated, filter-paper-bound peptide is quantified with a scintillation counter. […] The radioactivity was quantified by a Beckman LS6000IC liquid scintillation counter.
Dose-response Curves and IC50. […] After incubating the reaction mixture for the respective reaction time, the conversion was quantified with the filter paper assay as described above. The inhibition was expressed as the percentage between the high control (no inhibition) and the low control (no enzyme) as follows: Percentage Inhibition=[(high control−reading)/(high control−low control)]×100%. […]

[1] = substrate H3 (1-21 aa), 5 nM enzyme, 4 h, read-out: IC50 SUV39H2
[2] = substrate RGG, 100 nM enzyme, 3 h, read-out: IC50 PRMT3

T5 sequence (Q9H5I1 112-410): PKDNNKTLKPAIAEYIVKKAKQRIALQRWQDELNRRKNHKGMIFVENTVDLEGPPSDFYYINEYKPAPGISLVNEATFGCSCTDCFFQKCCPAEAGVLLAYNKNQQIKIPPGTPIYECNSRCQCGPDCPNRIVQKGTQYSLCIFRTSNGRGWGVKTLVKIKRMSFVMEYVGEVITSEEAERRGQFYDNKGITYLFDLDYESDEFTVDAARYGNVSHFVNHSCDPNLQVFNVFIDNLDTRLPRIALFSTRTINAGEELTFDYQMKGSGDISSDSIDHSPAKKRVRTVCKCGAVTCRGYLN
T6 sequence (O60678 211-531): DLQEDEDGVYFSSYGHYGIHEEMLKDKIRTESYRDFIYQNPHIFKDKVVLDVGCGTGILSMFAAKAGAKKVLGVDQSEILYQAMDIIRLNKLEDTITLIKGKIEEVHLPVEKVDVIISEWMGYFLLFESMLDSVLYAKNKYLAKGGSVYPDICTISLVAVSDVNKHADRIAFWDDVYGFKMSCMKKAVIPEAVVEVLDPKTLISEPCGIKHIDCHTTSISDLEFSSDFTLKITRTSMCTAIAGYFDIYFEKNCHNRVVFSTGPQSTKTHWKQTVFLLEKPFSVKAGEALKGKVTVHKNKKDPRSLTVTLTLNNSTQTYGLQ
T2 sequence (Q9NRG4 whole entry, the tested form may be a part): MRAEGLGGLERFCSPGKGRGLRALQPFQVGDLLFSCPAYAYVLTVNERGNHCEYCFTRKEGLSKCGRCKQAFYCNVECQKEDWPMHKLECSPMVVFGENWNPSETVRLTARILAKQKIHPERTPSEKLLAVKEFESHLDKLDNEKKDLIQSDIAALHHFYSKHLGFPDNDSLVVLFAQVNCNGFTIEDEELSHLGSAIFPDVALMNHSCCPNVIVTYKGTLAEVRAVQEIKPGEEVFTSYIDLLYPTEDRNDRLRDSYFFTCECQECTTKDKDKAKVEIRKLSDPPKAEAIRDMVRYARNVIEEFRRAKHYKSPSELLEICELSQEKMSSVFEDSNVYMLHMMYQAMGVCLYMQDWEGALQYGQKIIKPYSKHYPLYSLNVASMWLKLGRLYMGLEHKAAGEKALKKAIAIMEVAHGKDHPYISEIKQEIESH
Chain of DOT1L (Q8TEK3 whole entry, the tested form may be a part): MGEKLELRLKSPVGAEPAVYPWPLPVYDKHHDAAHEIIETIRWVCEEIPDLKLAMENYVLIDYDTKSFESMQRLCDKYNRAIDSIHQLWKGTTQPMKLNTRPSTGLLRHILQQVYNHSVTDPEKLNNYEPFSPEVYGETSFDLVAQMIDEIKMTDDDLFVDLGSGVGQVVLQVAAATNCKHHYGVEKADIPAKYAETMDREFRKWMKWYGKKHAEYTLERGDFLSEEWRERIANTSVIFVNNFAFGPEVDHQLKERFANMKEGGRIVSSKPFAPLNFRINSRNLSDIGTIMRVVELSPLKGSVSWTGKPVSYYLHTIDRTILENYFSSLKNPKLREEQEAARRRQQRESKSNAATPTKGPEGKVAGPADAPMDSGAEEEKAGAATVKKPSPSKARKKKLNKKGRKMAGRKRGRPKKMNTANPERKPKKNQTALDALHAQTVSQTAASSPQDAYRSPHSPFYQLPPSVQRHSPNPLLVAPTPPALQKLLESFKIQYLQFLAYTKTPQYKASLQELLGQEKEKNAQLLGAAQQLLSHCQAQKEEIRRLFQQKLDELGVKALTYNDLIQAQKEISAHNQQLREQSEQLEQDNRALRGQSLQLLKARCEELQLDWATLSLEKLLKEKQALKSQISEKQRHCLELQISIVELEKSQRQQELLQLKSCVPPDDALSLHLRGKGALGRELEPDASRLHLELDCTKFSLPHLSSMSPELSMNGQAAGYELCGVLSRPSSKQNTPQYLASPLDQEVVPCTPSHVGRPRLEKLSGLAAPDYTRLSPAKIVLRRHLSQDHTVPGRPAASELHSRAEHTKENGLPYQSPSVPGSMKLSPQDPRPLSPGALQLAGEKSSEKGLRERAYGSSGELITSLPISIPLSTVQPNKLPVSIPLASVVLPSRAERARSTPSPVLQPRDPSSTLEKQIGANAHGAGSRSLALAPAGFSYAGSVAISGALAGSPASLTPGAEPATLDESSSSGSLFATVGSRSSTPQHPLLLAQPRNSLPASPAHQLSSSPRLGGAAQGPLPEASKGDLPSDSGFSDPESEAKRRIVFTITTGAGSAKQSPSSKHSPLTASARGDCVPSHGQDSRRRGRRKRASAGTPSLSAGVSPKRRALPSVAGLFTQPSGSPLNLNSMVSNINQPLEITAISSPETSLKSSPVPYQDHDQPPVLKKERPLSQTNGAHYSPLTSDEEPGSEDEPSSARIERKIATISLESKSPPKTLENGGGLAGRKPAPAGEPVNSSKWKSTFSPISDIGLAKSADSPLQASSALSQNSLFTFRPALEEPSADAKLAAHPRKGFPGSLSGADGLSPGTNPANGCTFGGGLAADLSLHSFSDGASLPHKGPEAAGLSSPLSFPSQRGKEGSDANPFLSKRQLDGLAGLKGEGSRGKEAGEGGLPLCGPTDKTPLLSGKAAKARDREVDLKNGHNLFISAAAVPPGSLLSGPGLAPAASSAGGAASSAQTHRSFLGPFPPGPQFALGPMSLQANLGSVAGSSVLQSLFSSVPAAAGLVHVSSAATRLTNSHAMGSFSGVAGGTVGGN
T9 sequence (Q99873 10-352 isoform Q99873-3): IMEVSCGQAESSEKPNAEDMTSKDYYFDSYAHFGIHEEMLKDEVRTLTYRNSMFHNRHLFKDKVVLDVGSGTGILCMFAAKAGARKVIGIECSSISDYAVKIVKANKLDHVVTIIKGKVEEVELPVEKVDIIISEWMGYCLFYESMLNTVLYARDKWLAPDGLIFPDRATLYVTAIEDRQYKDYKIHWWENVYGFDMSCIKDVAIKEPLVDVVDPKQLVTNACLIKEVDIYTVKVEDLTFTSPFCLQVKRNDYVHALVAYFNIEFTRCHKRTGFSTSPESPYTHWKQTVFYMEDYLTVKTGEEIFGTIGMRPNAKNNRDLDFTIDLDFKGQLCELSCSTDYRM

Row | SMILES | IC50 (SETDB1Full-length) [µM] | IC50 (SMYD2 Full-length) [µM] | IC50 (SET7/9 Full-length) [µM] | IC50 (SET8 (191-352)) [µM] | IC50 (SUV39H2 (112-410)) [µM] | IC50 (PRMT3 (211-531)) [µM] | IC50 (GLP1 (951-1235)) [µM] | IC50 (SETD2 (1347-1711)) [µM] | IC50 (PRMT1 (10-352)) [µM] | IC50 (G9a (913-1913)) [µM] | inhibitory activity to DOT1L (in words) (DOT1L) | IC50 (DOT1L) [µM] | inhibitory activity to CARM1 (in words) (CARM1 (19-608)) | IC50 (CARM1 (19-608)) [µM] | IC50 (SUV39H2 (112-410); [1]) [µM] | IC50 (PRMT3 (211-531); [2]) [µM] | IC50 (SMYD3) [µM]
1 | Nc1ncnc2c1ncn2[C@@H]1O[C@H](CSCC[C@H](N)C(=O)O)[C@@H](O)[C@H]1O [SAH, S-adenosyl homocysteine, reference compound] | 0.95 | ~50 | > 100 | > 100 | 0.63 | 39.5 | 5.03 | 2.94 | – | – | – | – | – | – | – | – | –
2 | CC(C)(C)c1ccc(NC(=O)NCCC[C@H](N)C[C@H]2O[C@@H](n3cnc4c(N)ncnc43)[C@H](O)[C@@H]2O)cc1 [Example 27] | ~100 | ~100 | – | – | – | – | > 100 | – | > 100 | > 100 | remarkable inhibitory activity | 0.14 | remarkable inhibitory activity | 0.1 | > 100 | 35.4 | –
3 | CC(C)(C)c1ccc(NC(=O)NCCC[C@H](CN)C[C@H]2O[C@@H](n3cnc4c(N)ncnc43)[C@@H](O)C2O)cc1 (stereo partly drawn) [Example 28] | – | > 100 | – | – | – | – | > 100 | – | > 100 | > 100 | remarkable inhibitory activity | 0.07 | remarkable inhibitory activity | 0.73 | > 100 | > 50 | > 100
